According to US20260176232A1, “PROBENECID COMPOUNDS FOR THE TREATMENT OF INFLAMMASOME-MEDIATED DERMATOLOGICAL CONDITIONS” (Bacainn Biotherapeutics, Ltd., priority 2022, published 2026):

Assays:
Recombinant NLRP3 = experiment: Photo-affinity labelling of recombinant NLRP3, anti-PEG immunoblot (FIG. 9C); type: binding; conditions: pre-incubation 20 mins, UV 365 nm, then ADS165
[1] = target: T1, recombinant full length NLRP1 (Homo sapiens, UniProt Q9C000); experiment: Photo-affinity labelling of recombinant full length NLRP1, anti-PEG immunoblot (FIG. 9E); type: binding; conditions: pre-incubation, UV 365 nm, then ADS165
T1 sequence (Q9C000 1-1473): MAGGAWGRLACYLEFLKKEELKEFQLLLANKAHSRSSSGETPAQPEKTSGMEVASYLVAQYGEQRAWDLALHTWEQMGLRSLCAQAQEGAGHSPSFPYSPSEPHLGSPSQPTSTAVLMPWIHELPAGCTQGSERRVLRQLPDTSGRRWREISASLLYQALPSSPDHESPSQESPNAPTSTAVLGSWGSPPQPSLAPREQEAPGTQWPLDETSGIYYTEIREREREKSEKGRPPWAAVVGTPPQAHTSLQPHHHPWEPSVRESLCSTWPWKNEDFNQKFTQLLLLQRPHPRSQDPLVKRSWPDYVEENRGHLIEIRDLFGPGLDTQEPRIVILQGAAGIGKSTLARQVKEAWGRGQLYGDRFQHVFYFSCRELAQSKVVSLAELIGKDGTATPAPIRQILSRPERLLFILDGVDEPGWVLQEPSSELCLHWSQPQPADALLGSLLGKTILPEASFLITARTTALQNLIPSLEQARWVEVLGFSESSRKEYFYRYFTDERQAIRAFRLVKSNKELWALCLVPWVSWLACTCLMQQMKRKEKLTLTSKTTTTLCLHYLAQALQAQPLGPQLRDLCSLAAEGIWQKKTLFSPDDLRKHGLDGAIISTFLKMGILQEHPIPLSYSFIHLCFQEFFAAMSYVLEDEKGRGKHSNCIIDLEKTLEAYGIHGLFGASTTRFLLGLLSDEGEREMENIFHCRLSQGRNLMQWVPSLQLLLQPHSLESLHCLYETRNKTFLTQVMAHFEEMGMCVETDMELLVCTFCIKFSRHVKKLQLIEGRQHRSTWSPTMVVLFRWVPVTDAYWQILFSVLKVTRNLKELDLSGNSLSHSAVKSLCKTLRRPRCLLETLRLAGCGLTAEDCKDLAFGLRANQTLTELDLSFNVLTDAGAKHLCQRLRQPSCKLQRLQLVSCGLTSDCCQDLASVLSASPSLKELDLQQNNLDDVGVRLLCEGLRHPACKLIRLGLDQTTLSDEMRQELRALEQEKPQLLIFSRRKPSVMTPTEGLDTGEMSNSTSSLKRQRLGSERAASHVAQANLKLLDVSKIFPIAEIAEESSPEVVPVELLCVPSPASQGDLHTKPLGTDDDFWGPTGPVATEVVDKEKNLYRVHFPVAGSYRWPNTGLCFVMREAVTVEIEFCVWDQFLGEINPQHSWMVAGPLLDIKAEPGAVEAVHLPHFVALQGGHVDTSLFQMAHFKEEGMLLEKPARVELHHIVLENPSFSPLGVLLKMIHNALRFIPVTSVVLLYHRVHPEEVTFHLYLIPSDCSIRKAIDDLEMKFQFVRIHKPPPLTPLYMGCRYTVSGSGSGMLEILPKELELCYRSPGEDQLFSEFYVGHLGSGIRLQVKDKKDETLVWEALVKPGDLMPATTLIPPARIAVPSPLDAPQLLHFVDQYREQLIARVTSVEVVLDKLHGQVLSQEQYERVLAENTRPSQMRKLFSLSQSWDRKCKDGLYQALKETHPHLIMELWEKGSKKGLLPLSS
Procedure: FIGS. 9A-9F are a series of panels showing ADS032 (also referred to herein as “BT032”) directly binds to NLRP1 and NLRP3. FIGS. 9A and 9B are chemical structures of ADS165 and ADS167. […] ADS165 was then co-incubated for 20 mins and UV treated for 20 mins to cross-link associated compound and protein. Protein was separated by SDS-PAGE and immunoblotted (IB) with anti-PEG to visualize ADS165-linked protein. FIG. 9D: iBMDM cells stably expressing NLRP3-Flag were treated for 30 mins with ADS165, ADS167 (1 mM) or MCC955 (50 μM) for 30 mins, and irradiated with UV 365 nm for 30 mins. Cells were lysed with buffer and immunoprecipitation (IP) of NLRP3 performed with α-NLRP3 (D4D8T) antibody. Levels of precipitated (IP) and total cellular lysate (Input) NLRP3 were determined by immunoblotting with α-NLRP3 (Cryo-2) antibody. FIG. 9F: NLRP1-Flag was expressed in HEK293T cells (1×10^6) for 20 h and treated with ADS165 (1 mM) for 30 mins where indicated, followed by UV 365 nm for a further 30 mins. Cells were lysed with lysis buffer and […] immunoprecipitated with α-Flag (M2) antibody. Proteins were separated by SDS-PAGE and ADS165-linked NLRP1 identified by immunoblot with a-PEG, while total precipitated NLRP1 visualized by immunoblot with α-NLRP1 and total cell lysate by α-Flag. Data shown is representative of three independent experiments.
Next, it was determined whether ADSO32 could interact with NLRP1. […] To further investigate this interaction, ectopically expressed Flag-tagged NLRP1 was immunoprecipitated from cell lysates pretreated or not with ADS165 and exposed to UV light.

NLRP3 [2] = target: T2, NLRP3 (Mus musculus, UniProt Q8R4B8); experiment: NLRP3-induced IL-1β secretion from iBMDMs, photo-affinity probes; type: cell-based; conditions: data not shown
T2 construct: endogenous in cells; host or cells: iBMDMs
T2 sequence (Q8R4B8 whole entry): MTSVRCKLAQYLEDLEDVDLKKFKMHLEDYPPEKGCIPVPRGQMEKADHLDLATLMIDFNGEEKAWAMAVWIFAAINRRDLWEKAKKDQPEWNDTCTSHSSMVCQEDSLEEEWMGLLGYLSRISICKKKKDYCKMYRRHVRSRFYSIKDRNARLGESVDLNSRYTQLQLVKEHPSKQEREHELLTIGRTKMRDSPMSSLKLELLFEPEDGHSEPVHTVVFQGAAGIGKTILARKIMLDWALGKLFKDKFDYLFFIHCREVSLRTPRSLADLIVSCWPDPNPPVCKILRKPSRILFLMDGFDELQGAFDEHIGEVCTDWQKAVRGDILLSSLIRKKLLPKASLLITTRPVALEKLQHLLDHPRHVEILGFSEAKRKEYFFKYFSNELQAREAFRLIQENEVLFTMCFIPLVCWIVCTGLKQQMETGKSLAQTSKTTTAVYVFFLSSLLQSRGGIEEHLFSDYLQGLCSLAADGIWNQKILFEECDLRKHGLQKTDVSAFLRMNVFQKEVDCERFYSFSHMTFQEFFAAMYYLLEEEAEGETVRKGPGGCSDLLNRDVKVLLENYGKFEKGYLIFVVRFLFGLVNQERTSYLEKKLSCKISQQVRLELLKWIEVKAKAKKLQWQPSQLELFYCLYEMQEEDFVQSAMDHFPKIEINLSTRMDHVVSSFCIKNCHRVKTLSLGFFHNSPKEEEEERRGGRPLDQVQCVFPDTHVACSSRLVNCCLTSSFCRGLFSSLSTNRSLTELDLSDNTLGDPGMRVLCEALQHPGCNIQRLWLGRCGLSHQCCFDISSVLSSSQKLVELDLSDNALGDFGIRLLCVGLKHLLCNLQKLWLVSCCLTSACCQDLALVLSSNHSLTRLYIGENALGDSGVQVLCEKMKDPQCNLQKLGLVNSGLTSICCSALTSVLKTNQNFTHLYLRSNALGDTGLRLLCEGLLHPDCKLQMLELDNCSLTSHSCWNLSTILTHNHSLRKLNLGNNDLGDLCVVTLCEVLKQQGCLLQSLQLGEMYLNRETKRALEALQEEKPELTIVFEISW
Description: To verify interaction with target proteins, a photo-affinity labeling strategy (MacKinnon+Taunton, 2009) was developed where two modified versions of ADSO32 (1) containing an alkyne photoactivatable moiety linked with a PEG550 moiety to allow visualization (FIG. 9A) termed ADS165; and (2) ADSO32 linked with a diazirine photo-affinity label, (FIG. 9B) termed ADS167 were synthesized. Both photo-affinity labels covalently cross-link to molecular targets when exposed to ultraviolet light (365 nm).

NLRP3 [3] = experiment: D4D8T immunoprecipitation of NLRP3 from photo-labelled iBMDMs (FIG. 9D); conditions: ADS165, ADS167 1 mM; MCC 50 μM; UV 365 nm 30 mins
NLRP1 inflammasome [4] = experiment: IL-1β secretion in macrophages challenged with L18-MDP (FIG. 7); type: cell-based, human; conditions: 20, 100, 350 μM, L18-MDP 100 μg/mL 16 hours, secreted IL-1β
Description: (§1) In vitro stimulation of human macrophages.

NLRP3 inflammasome = NLRP3 inflammasome (Mus musculus, UniProt Q8R4B8); experiment: IL-1β secretion (ELISA) in LPS-primed iBMDMs stimulated with silica or nigericin; type: cell-based, murine (C57BL/6); set-up: endogenous in cells; host or cells: immortalized wild-type C57BL/6 bone-marrow derived macrophages (iBMDMs), LPS-primed; conditions: compared with probenecid in DMSO or PBS
Chain of NLRP3 inflammasome (Q8R4B8 whole entry): as above
Procedure: In vitro stimulation of murine macrophages. Immortalized wild-type C57BL/6 bone-marrow derived macrophages (iBMDMs) were grown in DMEM supplemented with 10% heat inactivated FBS and 2 mM glutamine. iBMDMs were seeded in 96-well plates 24 hours prior incubation with lipopolysaccharide (LPS; 100 ng/mL) for 3 hours. Cells were then incubated with a control probenecid compound (probenecid dissolved in DMSO (Prob/D), probenecid dissolved in PBS (Prob/P)) or one of the probenecid analogs of the present technology (BT032, BT132, BT133, BT134, BT135, BT136, BT137, BT138, BT139, or BT140) at concentrations of 300 μM, 150 μM, 30 μM, or 3 μM 1 hour prior to stimulation with NLRP3 inflammasome activators, silica ([…]) or nigericin (6 μM). After an additional 6 hours, cell supernatants were collected and levels of IL-1β were quantified by ELISA. These experiments were run in triplicate three times.

NLRP1 inflammasome [5] = experiment: IL-1β secretion in macrophages challenged with L18-MDP (FIG. 4C); type: cell-based, human; conditions: BT032 20, 100 μM; MCC950 5 μM; L18-MDP 100 μg/ml 16 h
Description: as §1

In the case of `CCCCN(CCC)S(=O)(=O)c1ccc(-c2ccc(CCCC(=O)NCc3ccc(C4(C(F)(F)F)N=N4)cc3)cc2)cc1` [ADS167], the “competition with ADS165 labelling of NLRP3” value (Recombinant NLRP3) is reported as “inhibited the ability of ADS165 to label NLPR3”, the “competition with ADS165 interaction with NLRP1” value [1] is reported as “could ablate interaction” and the “NLRP3-induced IL-1β secretion from iBMDMs” value (NLRP3 [2]) is reported as “still able to inhibit NLRP3-induced IL-1β secretion”. The “efficacy relative to ADS032 (NLRP3-induced IL-1β secretion)” value (NLRP3 [2]) was “reduced efficacy as compared to ADS032” and the “D4D8T-mediated NLRP3 immunoprecipitation” value (NLRP3 [3]) was “reduced the efficacy of D4D8T-mediated NLRP3 immunoprecipitation”.
For `CCCN(CCC)S(=O)(=O)c1ccc(-c2nc(CCCC(=O)O)cs2)cc1` [BT136, 4-(2-(4-(N,N-dipropylsulfamoyl)phenyl)thiazol-4-yl)butanoic acid], the “NLRP1 (L18-MDP)-induced inflammasome activation” value (NLRP1 inflammasome [4]) was “dose-dependently inhibited” and the “potency versus control probenecid compounds (IL-1β secretion)” value (NLRP3 inflammasome) was “more potent than the control probenecid compounds”.
In the case of `CCCN(CCC)S(=O)(=O)c1ccc(N2CCC(CCCC(=O)O)CC2)cc1` [BT135, 4-(1-(4-(N,N-dipropylsulfamoyl)-phenyl)piperidin-4-yl)butanoic acid], the “NLRP1 (L18-MDP)-induced inflammasome activation” value (NLRP1 inflammasome [4]) is reported as “dose-dependently inhibited”.
With `CC(C)(O)c1coc(S(=O)(=O)NC(=O)Nc2c3c(cc4c2CCC4)CCC3)c1` [MCC950, reference compound] the “NLRP1 (L18-MDP)-induced inflammasome activation” value (NLRP1 inflammasome [5]) was “no impact” and the “competition with ADS165 interaction with NLRP1” value [1] was “no effect”.
